pIC50: −log10 of the molar value. Like-named read-outs stand apart in the source and are kept apart here.

Usually EC50 stands for the midpoint of the concentration-response curve. A low value points to an effect from little substance. The IC50 is the concentration at which inhibition is half-maximal. One may read the pIC50 as the IC50 on a negative log10 scale, so that one unit is a factor of ten. Higher therefore signals a low IC50.

Test [1] has as its target T1, androgen receptor (hAR) (Homo sapiens (Human), UniProt P10275). The test can be described thus: Test of transcriptional activity (hAR / ARE-Luc dual-luciferase assay in CHO cells). In kind it is cell-based. The note with it: EC50 [nM] (mean ± SE), CHO cells with hAR and ARE-Luc, 24 hours; 10 nM DHT = 100%. The procedure, abridged:
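CHO cells cultured 24 h, then transfected with hAR and ARE-Luc plasmids. Transfected cells treated with 0.1˜10,000 nM compound for 24 h; transcriptional activity read by dual-luciferase reporter.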

Test [2] has as its target T1, androgen receptor (hAR). Put plainly: biochemical. In kind it is binding. The following applies: for IC50: 1 nM [3H]MIB, hAR-transfected COS-7 cells, 2 hours, read-out: IC50 [nM] (mean ± SE). On the procedure:
In order to examine binding ability of the agonists of the present invention to androgen receptors, the following in-vitro experiment was performed. African green monkey kidney fibroblast-like cell line, COS-7 (ATCC, #CRL-1651) was seeded in a 48-well plate at a density of 2.5×10^4 cells/well, and cultured for 24 hours. Then, a plasmid hAR-mixed medium was added thereto. […] Thereafter, the cells were lysed and the amount of [3H]MIB bound to the intracellular androgen receptors was measured using a radiation dosimeter.

T1 sequence (P10275 whole entry): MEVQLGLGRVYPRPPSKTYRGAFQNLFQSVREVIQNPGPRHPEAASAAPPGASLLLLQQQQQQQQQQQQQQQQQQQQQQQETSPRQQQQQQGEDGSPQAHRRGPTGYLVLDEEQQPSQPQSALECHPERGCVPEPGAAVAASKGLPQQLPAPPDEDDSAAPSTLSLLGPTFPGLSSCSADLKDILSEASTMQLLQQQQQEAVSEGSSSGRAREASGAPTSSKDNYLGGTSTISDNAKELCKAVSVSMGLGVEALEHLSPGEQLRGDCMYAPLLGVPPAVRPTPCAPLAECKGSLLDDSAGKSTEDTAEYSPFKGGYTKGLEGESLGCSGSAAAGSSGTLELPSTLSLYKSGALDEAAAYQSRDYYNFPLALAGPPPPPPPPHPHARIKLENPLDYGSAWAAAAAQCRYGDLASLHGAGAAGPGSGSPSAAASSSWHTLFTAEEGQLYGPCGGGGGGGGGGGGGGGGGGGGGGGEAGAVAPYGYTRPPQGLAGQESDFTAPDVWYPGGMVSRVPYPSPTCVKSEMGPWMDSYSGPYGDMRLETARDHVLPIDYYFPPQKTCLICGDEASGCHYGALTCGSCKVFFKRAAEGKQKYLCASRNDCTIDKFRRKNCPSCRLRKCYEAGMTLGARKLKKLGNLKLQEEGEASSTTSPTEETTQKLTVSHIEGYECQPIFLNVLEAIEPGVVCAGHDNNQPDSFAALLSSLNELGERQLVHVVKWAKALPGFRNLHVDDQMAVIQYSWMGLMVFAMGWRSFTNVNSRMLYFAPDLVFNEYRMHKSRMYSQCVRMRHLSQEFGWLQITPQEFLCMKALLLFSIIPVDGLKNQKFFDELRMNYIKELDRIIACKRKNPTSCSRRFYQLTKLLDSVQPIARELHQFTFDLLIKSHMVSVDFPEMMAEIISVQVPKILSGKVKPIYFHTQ

For `N#Cc1ccc(COC[C@@H]2CN(c3ccc(C#N)c(C(F)(F)F)c3)[C@@H](C(F)(F)F)O2)cc1` [Example 2, 4-((2R,5S)-5-(((4-cyanobenzyl)oxy)methyl)-2-(trifluoromethyl)oxazolidin-3-yl)-2-(trifluoromethyl)benzonitrile], the EC50 in test [1] worked out at 133 nM. Moreover, in test [2], the IC50 amounted to 23.9 nM. Taken in the same sequence, the figures for `N#Cc1ccc(OC[C@@H]2CN(c3ccc(C#N)c(C(F)(F)F)c3)[C@H](C(F)(F)F)O2)cc1` [Example 6, 4-((2S,5S)-5-((4-cyanophenoxy)methyl)-2-(trifluoromethyl)oxazolidin-3-yl)-2-(trifluoromethyl)benzonitrile] were 4.1 nM and 11 nM. For `COC(=O)c1ccc(OC[C@@H]2CN(c3ccc(C#N)c(C(F)(F)F)c3)[C@@H](C(F)(F)F)O2)cc1` [Example 7, methyl 4-(((2R,5S)-3-(4-cyano-3-(trifluoromethyl)phenyl)-2-(trifluoromethyl)oxazolidin-5-yl)methoxy)benzoate], in that order: 13.1 nM and 15.7 nM. Taken in the same sequence, the figures for `N#Cc1ccc(N2C[C@@H](COc3ccc([N+](=O)[O-])cc3)O[C@@H]2C(F)(F)F)cc1C(F)(F)F` [Example 8, 4-((2R,5S)-5-((4-nitrophenoxy)methyl)-2-(trifluoromethyl)oxazolidin-3-yl)-2-(trifluoromethyl)benzonitrile] were 20 nM and 13.7 nM.

`N#Cc1ccc(N2C[C@@H](COc3ccc(F)c(F)c3)O[C@@H]2C(F)(F)F)cc1C(F)(F)F` [Example 10, 4-((2R,5S)-5-((3,4-difluorophenoxy)methyl)-2-(trifluoromethyl)oxazolidin-3-yl)-2-(trifluoromethyl)benzonitrile] showed an EC50 in test [1] of 11.1 nM. Moreover, the IC50 in test [2] stood at 6.3 nM.

For `N#Cc1ccc(OC[C@@H]2CN(c3ccc(C#N)c(C(F)(F)F)c3)[C@@H](C(F)(F)F)O2)c(F)c1` [Example 11, 4-((2R,5S)-5-((4-cyano-2-fluorophenoxy)methyl)-2-(trifluoromethyl)oxazolidin-3-yl)-2-(trifluoromethyl)benzonitrile], in test [1], the EC50 worked out at 4.5 nM. The IC50 in test [2] was determined as 10.5 nM. As for `N#Cc1ccc(N2C[C@@H](COc3ccc([N+](=O)[O-])cc3Cl)O[C@@H]2C(F)(F)F)cc1C(F)(F)F` [Example 12, 4-((2R,5S)-5-((2-chloro-4-nitrophenoxy)methyl)-2-(trifluoromethyl)oxazolidin-3-yl)-2-(trifluoromethyl)benzonitrile], in test [2], the IC50 came out at 145 nM. Take `N#Cc1ccc(N2C[C@@H](COc3cc(F)c(F)cc3F)O[C@@H]2C(F)(F)F)cc1C(F)(F)F` [Example 13, 2-(trifluoromethyl)-4-((2R,5S)-2-(trifluoromethyl)-5-((2,4,5-trifluorophenoxy)methyl)oxazolidin-3-yl)benzonitrile]: the EC50 in test [1] was found to be 9.9 nM. Also, the IC50 in test [2] was determined as 14.5 nM. With `N#Cc1ccc(OC[C@H]2CN(c3ccc(C#N)c(C(F)(F)F)c3)[C@H](C(F)(F)F)O2)cc1` [Example 20, 4-((2S,5R)-5-((4-cyanophenoxy)methyl)-2-(trifluoromethyl)oxazolidin-3-yl)-2-(trifluoromethyl)benzonitrile], in test [2], the IC50 came out at 1080 nM. For the compound `N#Cc1ccc(N2C[C@H]([C@@H](O)C(F)(F)F)O[C@H]2C(F)(F)F)cc1C(F)(F)F` [Example 21, 4-((2S,5R)-5-((R)-2,2,2-trifluoro-1-hydroxyethyl)-2-(trifluoromethyl)oxazolidin-3-yl)-2-(trifluoromethyl)benzonitrile], in test [2], the IC50 is 1060 nM. Same read-out and setting: then `N#Cc1ccc(N2C[C@H]([C@H](O)C(F)(F)F)O[C@H]2C(F)(F)F)cc1C(F)(F)F` [Example 22, 4-((2S,5R)-5-((S)-2,2,2-trifluoro-1-hydroxyethyl)-2-(trifluoromethyl)oxazolidin-3-yl)-2-(trifluoromethyl)benzonitrile], with 1870 nM; and `N#Cc1ccc(N2C[C@@H]([C@@H](O)C(F)(F)F)O[C@@H]2C(F)(F)F)cc1C(F)(F)F` [Example 23, 4-((2R,5S)-5-((R)-2,2,2-trifluoro-1-hydroxyethyl)-2-(trifluoromethyl)oxazolidin-3-yl)-2-(trifluoromethyl)benzonitrile], with 44.3 nM; and `N#Cc1ccc(N2C[C@@H]([C@H](O)C(F)(F)F)O[C@@H]2C(F)(F)F)cc1C(F)(F)F` [Example 24, 4-((2R,5S)-5-((S)-2,2,2-trifluoro-1-hydroxyethyl)-2-(trifluoromethyl)oxazolidin-3-yl)-2-(trifluoromethyl)benzonitrile], with 141 nM. `N#Cc1ccc(N2C[C@@H](CSc3ccc(Cl)cc3)O[C@@H]2C(F)(F)F)cc1C(F)(F)F` [Example 26, 4-((2R,5S)-5-(((4-chlorophenyl)thio)methyl)-2-(trifluoromethyl)oxazolidin-3-yl)-2-(trifluoromethyl)benzonitrile] showed an EC50 in test [1] of 8.6 nM. In addition, in test [2], the IC50 stood at 43.6 nM. As to `COc1ccc(OC[C@@H]2CN(c3ccc(C#N)c(C(F)(F)F)c3)[C@@H](C(F)(F)F)O2)cc1` [Example 27, 4-((2R,5S)-5-((4-methoxyphenoxy)methyl)-2-(trifluoromethyl)oxazolidin-3-yl)-2-(trifluoromethyl)benzonitrile], in test [2], the IC50 was determined as 22.4 nM.

`COc1cccc(OC[C@@H]2CN(c3ccc(C#N)c(C(F)(F)F)c3)[C@@H](C(F)(F)F)O2)c1` [Example 28, 4-((2R,5S)-5-((3-methoxyphenoxy)methyl)-2-(trifluoromethyl)oxazolidin-3-yl)-2-(trifluoromethyl)benzonitrile]: the IC50 in test [2] was found to be 77.2 nM. In test [1], `N#Cc1ccc(SC[C@@H]2CN(c3ccc(C#N)c(C(F)(F)F)c3)[C@@H](C(F)(F)F)O2)cc1` [Example 29, 4-((2R,5S)-5-(((4-cyanophenyl)thio)methyl)-2-(trifluoromethyl)oxazolidin-3-yl)-2-(trifluoromethyl)benzonitrile] showed an EC50 of 7.5 nM. In addition, the IC50 in test [2] stood at 14.1 nM. In the case of `CC(=O)Nc1ccc(OC[C@@H]2CN(c3ccc(C#N)c(C(F)(F)F)c3)[C@H](C(F)(F)F)O2)cc1` [Example 30, N-(4-(((2S,5S)-3-(4-cyano-3-(trifluoromethyl)phenyl)-2-(trifluoromethyl)oxazolidin-5-yl)methoxy)phenyl)acetamide], the IC50 in test [2] worked out at 142 nM. In turn, `N#Cc1ccc(N2C[C@@H](COc3ccc([N+](=O)[O-])c(F)c3)O[C@@H]2C(F)(F)F)cc1C(F)(F)F` [Example 31] had an EC50 in test [1] of 17.7 nM. Besides, the IC50 in test [2] was 14.1 nM. Consider `CNC(=O)c1ccc(OC[C@@H]2CN(c3ccc(C#N)c(C(F)(F)F)c3)[C@@H](C(F)(F)F)O2)cc1` [Example 32, 4-(((2R,5S)-3-(4-cyano-3-(trifluoromethyl)phenyl)-2-(trifluoromethyl)oxazolidin-5-yl)methoxy)-N-methylbenzamide], for which the IC50 in test [2] is 32.7 nM. As for `N#Cc1ccc(N2C[C@@H](COc3ccc([N+](=O)[O-])cc3F)O[C@@H]2C(F)(F)F)cc1C(F)(F)F` [Example 33, 4-((2R,5S)-5-((2-fluoro-4-nitrophenoxy)methyl)-2-(trifluoromethyl)oxazolidin-3-yl)-2-(trifluoromethyl)benzonitrile], the EC50 in test [1] stood at 10.7 nM. The IC50 in test [2] was 10.4 nM. As for `CN(C)C(=O)c1ccc(OC[C@@H]2CN(c3ccc(C#N)c(C(F)(F)F)c3)[C@@H](C(F)(F)F)O2)cc1` [Example 34, 4-(((2R,5S)-3-(4-cyano-3-(trifluoromethyl)phenyl)-2-(trifluoromethyl)oxazolidin-5-yl)methoxy)-N,N-dimethylbenzamide], a half-maximal effect in test [1] (EC50) was put at 111 nM. In addition, the pIC50 in test [2] is 7.62. Take `N#Cc1ccc(N2C[C@@H](COc3ccc([N+](=O)[O-])cc3)O[C@H]2C(F)(F)F)cc1C(F)(F)F` [Example 35, 4-((2S,5S)-5-((4-nitrophenoxy)methyl)-2-(trifluoromethyl)oxazolidin-3-yl)-2-(trifluoromethyl)benzonitrile]: the IC50 in test [2] worked out at 185 nM. `N#Cc1ccc(N2C[C@@H](COc3ccc(Cl)cc3)O[C@@H]2C(F)(F)F)cc1C(F)(F)F` [Example 56, 4-((2R,5S)-5-((4-chlorophenoxy)methyl)-2-(trifluoromethyl)oxazolidin-3-yl)-2-(trifluoromethyl)benzonitrile] returned an EC50 in test [1] of 75.1 nM. Also, in test [2], the IC50 amounted to 75.1 nM.

Source of the values: patent publication US9809583B2 (priority 2014, dated 2017).
